Measurements from patent US8829185B2 (Bayer HealthCare LLC, priority 2005, dated 2014).

Legend:
FGFR1-GST = target: T1, FGFR1-GST (Homo sapiens, UniProt P11362); test: FGFR-1 TR-FRET biochemical assay
T1 construct: GST; made in house
Procedure, shortened: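 LANCE TR-FRET with 5 nM FGFR1-GST, 0.6 uM ATP, 25 nM biotin-poly GT in HEPES pH 7.5/MgCl2, 1% DMSO; compound added before enzyme, 1 h at room temperature. 665/615 nm ratio, background without ATP; % inhibition over 10 μM–0.128 nM final for IC50.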

[1] = test system: histone 3 phosphorylation in colon carcinoma (HCT116); test: p-Histone3 assay; format: cell-based; conditions: Homo sapiens, HCT-116, 24 h, HCT116, 24 hours treatment
Protocol: Compounds were assayed for the inhibition of histone 3 phosphorylation in colon carcinoma (HCT116). Briefly, 20,000 cells/well were seeded in a 96-well black-walled, poly-d-lysine plates in RPMI+10% FBS and incubated at 37° C. in 5% CO2 overnight. The following day, the cells were treated with compounds for 24 hours at 37° C. Following compound treatment; plates were centrifuged at 1000 rpm for 2 minutes and washed twice with 100 μl of cold sterile TBS. Cells were then fixed with cold 3.7% formaldehyde in TBS (4° C. for 1 hour) and then permeabalized with 0.1% Triton-X-100 in TBS (room temperature for 30 minutes). Plates were then washed with of 0.25% BSA-TBS and blocked with BSA solution for 1 hour at room temperature while shaking. The supernatant was removed and replaced with diluted primary antibody (anti-phospho-histone 3, serine 10, Cell Signaling) at 1:250 in 0.25% BSA-TBS and incubated overnight at 4° C. The plates were washed and treated with diluted secondary antibody (anti-rabbit Eu-labeled) at 1:10000 in 0.25% BSA-TBS (room temperature for 1 hour). The antibody solution was removed from each well and washed eight times. The wash buffer was replaced with 50 μl pre-warmed enhancement solution and mixed on the orbital shaker for 10 minutes. Fluorescence was detected with a Victor V Fluorescence Detector. The data are expressed as percent inhibition: % inhibition=100−((Signal with inhibitor-background)/(Signal without inhibitor-background))×100.

HCT116 cells = test: Tumor cell proliferation (Alamar Blue), HCT116; format: cell-based; conditions: Homo sapiens, HCT-116, 72 h, HCT116, 72 h
Protocol: (§1) Human tumor cells (e.g., HCT116 or MDA-MB-231 cells), were seeded in a Costar 96-well plate at 3.0×10^3 cells/well and grown in 150 μl of RPMI complete media (Invitrogen Corporation, Grand Island, N.Y.) containing 10% fetal bovine serum (Hyclone, Logan, Utah) at 37° C. for 16 h in an incubator with 5% CO2. To each well, 50 μl of additional growth media containing 40 μM to 18 nM concentrations of compound with 0.4% DMSO was added. Cells were grown for another 72 h at 37° C. with 5% CO2. 20 μl of Alamar Blue (Trek Diagnostic Systems, Inc., Cleveland, Ohio) reagent was added to each well and incubated for 3 h at 37° C. Plates were read in a SpectraMax Gemini (Molecular Devices, CA) with 544 nm excitation and 590 nm emission wavelength. IC50 values were determined by linear regression analysis of log drug concentration versus percent inhibition.

MDA-MB-231 cells = test: Tumor cell proliferation (Alamar Blue), MDA-MB-231; format: cell-based; conditions: Homo sapiens, MDA-MB-231, 72 h
Protocol: as §1

T1 sequence (P11362 22-822): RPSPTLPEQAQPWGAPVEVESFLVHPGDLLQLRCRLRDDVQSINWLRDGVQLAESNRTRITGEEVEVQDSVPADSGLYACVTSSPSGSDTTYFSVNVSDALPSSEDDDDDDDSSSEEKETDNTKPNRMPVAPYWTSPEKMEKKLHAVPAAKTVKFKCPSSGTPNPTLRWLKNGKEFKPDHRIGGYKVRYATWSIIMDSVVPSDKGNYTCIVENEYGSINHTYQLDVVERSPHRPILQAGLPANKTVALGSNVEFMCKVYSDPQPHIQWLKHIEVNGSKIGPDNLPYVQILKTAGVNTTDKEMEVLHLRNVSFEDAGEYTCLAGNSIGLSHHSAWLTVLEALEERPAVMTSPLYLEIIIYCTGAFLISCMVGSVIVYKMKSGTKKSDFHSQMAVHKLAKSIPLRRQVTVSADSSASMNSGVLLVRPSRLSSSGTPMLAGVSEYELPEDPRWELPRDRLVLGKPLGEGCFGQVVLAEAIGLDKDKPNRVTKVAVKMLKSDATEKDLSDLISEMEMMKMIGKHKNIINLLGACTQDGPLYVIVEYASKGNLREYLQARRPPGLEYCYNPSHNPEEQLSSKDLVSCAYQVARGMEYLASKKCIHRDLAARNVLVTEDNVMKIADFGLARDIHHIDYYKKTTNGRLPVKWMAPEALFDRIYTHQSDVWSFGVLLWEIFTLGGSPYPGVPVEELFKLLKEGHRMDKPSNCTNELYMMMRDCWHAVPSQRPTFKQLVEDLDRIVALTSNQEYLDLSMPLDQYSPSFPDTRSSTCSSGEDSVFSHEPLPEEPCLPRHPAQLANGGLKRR

SMILES | IC50 (FGFR1-GST; bounds given in nM) [nM] | IC50 ([1]; bounds given in μM) [µM] | IC50 ([1]; lower bound in nM) [µM] | further results
COCc1c(-c2ccc(NC(=O)Nc3cc(C(F)(F)F)ccc3F)cc2)c2c(N)ncnn2c1CO [Example 23, N-{4-[4-amino-7-(hydroxymethyl)-6-(methoxymethyl)-pyrrolo[2,1-f][1,2,4]triazin-5-yl]phenyl}-N′-[2-fluoro-5-(trifluoromethyl)-phenyl]urea] | 10 to 100 | – | – | IC50 (HCT116 cells; lower bound in nM): > 500 nM; IC50 (HCT116 cells; upper bound given in μM): < 4000 nM; IC50 (MDA-MB-231 cells; lower bound in nM): > 500 nM; IC50 (MDA-MB-231 cells; upper bound given in μM): < 5000 nM
CN(C)Cc1c(C(=O)NCC(F)(F)F)c(-c2ccc(NC(=O)Nc3cccc(C(F)(F)F)n3)cc2)c2c(N)ncnn12 [Example 53, 4-amino-7-[(dimethylamino)methyl]-N-(2,2,2-trifluoroethyl)-5-{-4-[({[6-(trifluoromethyl)-pyridin-2-yl]amino}carbonyl)-amino]phenyl}pyrrolo[2,1-f][1,2,4]triazine-6-carboxamide] | – | < 5 | > 0.5 | –
COCc1c(-c2ccc(NC(=O)Nc3cc(C(F)(F)F)ccc3F)cc2)c2c(N)ncnn2c1CN1CCN(S(C)(=O)=O)CC1 [Example 20, N-[4-(4-amino-6-(methoxymethyl)-7-{[4-(methylsulfonyl)piperazin-1-yl]methyl}pyrrolo[2,1-f][1,2,4]triazin-5-yl)phenyl]-N′-[2-fluoro-5-(trifluoromethyl)phenyl]urea] | 10 to 100 | 5 to 10 | – | –
Nc1ncnn2c(CN3CCOCC3)c(CO)c(-c3ccc(NC(=O)Nc4cc(C(F)(F)F)ccn4)cc3)c12 [Example 62, N-{4-[4-amino-6-(hydroxymethyl)-7-(morpholin-4-ylmethyl)pyrrolo[2,1-f][1,2,4]triazin-5-yl]phenyl}-N′-[4-(trifluoromethyl)-pyridin-2-yl]urea] | 10 to 100 | 5 to 10 | – | –
Nc1ncnn2c(CN3CCOCC3)c(CO)c(-c3ccc(NC(=O)Nc4cc(C(F)(F)F)ccn4)c(F)c3)c12 [Example 114, N-{4-[4-amino-6-(hydroxymethyl)-7-(morpholin-4-ylmethyl)pyrrolo[2,1-f][1,2,4]triazin-5-yl]-2-fluorophenyl}-N′-[4-(trifluoromethyl)pyridin-2-yl]urea] | 10 to 100 | – | – | –
COCc1c(-c2ccc(NC(=O)Nc3cc(C(F)(F)F)ccc3F)cc2)c2c(N)ncnn2c1C(C)O (centres unmarked) [Example 25, N-{4-[4-amino-7-(1-hydroxyethyl)-6-(methoxymethyl)pyrrolo[2,1-f][1,2,4]triazin-5-yl]phenyl}-N′-[2-fluoro-5-(trifluoromethyl)phenyl]urea] | – | – | – | IC50 (HCT116 cells; lower bound in nM): > 500 nM; IC50 (HCT116 cells; upper bound given in μM): < 4000 nM
CCOC(=O)c1c(-c2ccc(NC(=O)Nc3cc(C(F)(F)F)ccn3)cc2)c2c(N)ncnn2c1C#N [Example 6, ethyl 4-amino-7-cyano-5-{4-[({[4-(trifluoromethyl)pyridin-2-yl]amino}carbonyl)amino]phenyl}pyrrolo[2,1-f][1,2,4]triazine-6-carboxylate] | > 100 | – | – | IC50 (FGFR1-GST; upper bound in μM): < 1000 nM
Nc1ncnn2c(CN3CCOCC3)c(CO)c(-c3ccc(NC(=O)Nc4cc(C(F)(F)F)ccc4F)cc3)c12 [Example 34, N-4-[4-amino-6-(hydroxymethyl)-7-(morpholin-4-ylmethyl)-pyrrolo[2,1-f][1,2,4]triazin-5-yl]phenyl-N′-[2-fluoro-5-(trifluoromethyl)-phenyl]urea] | 10 to 100 | < 5 | > 0.5 | –
COCc1c(-c2ccc(NC(=O)Nc3cccc(C(C)(C)C)c3)c(F)c2)c2c(N)ncnn2c1CN1CCOCC1 [Example 138, N-{4-[4-amino-6-(methoxymethyl)-7-(morpholin-4-ylmethyl)-pyrrolo[2,1-f][1,2,4]triazin-5-yl]-2-fluorophenyl}-N′-(3-tert-butylphenyl)urea] | < 10 | – | – | –

Second part, led by results:

IC50 (FGFR1-GST; bounds given in nM) [nM] | IC50 ([1]; bounds given in μM) [µM] | IC50 ([1]; lower bound in nM) [µM] | SMILES | further results
< 10 | < 5 | > 0.5 | N#Cc1c(-c2ccc(NC(=O)Nc3cc(C(F)(F)F)ccc3F)cc2)c2c(N)ncnn2c1CN1CCOCC1 [Example 54, N-4-[4-amino-6-cyano-7-(morpholin-4-ylmethyl)pyrrolo[2,1-f][1,2,4]triazin-5-yl]phenyl-N′-[2-fluoro-5-(trifluoromethyl)phenyl]urea] | –
< 10 | 5 to 10 | – | Nc1ncnn2c(CN3CCOCC3)c(-c3cnco3)c(-c3ccc(NC(=O)Nc4cc(C(F)(F)F)ccn4)c(F)c3)c12 [Example 33, N-4-[4-amino-7-(morpholin-4-ylmethyl)-6-(1,3-oxazol-5-yl)pyrrolo[2,1-f][1,2,4]triazin-5-yl]-2-fluorophenyl-N′-[4-(trifluoromethyl)pyridin-2-yl]urea] | –
< 10 | < 5 | > 0.5 | Nc1ncnn2c(CN3CCOCC3)c(C(=O)NCC(F)(F)F)c(-c3ccc(NC(=O)Nc4cc(C(F)(F)F)ccc4F)cc3)c12 [Example 9, 4-amino-5-{4-[({[2-fluoro-5-(trifluoromethyl)-phenyl]amino}carbonyl)amino]phenyl}-7-(morpholin-4-ylmethyl)-N-(2,2,2-trifluoroethyl)pyrrolo[2,1-f][1,2,4]triazine-6-carboxamide] | –
< 10 | < 5 | > 0.5 | Cc1c(-c2ccc(NC(=O)Nc3cc(C(F)(F)F)ccc3F)cc2)c2c(N)ncnn2c1CN1CCOCC1 [Example 111, N-{4-[4-amino-6-methyl-7-(morpholin-4-ylmethyl)pyrrolo[2,1-f][1,2,4]triazin-5-yl]phenyl}-N′-[2-fluoro-5-(trifluoromethyl)phenyl]urea] | –
< 10 | – | – | COCc1c(-c2ccc(NC(=O)Nc3cc(C(F)(F)F)ccn3)c(C)c2)c2c(N)ncnn2c1CN1CCOCC1 [Example 145, N-4-[4-amino-6-(methoxymethyl)-7-(morpholin-4-ylmethyl)pyrrolo[2,1-f][1,2,4]triazin-5-yl]-2-methylphenyl-N′-[4-(trifluoromethyl)pyridin-2-yl]urea] | –
< 10 | – | – | CC(=O)c1c(-c2ccc(NC(=O)Nc3cc(C(F)(F)F)ccn3)c(F)c2)c2c(N)ncnn2c1CN1CCOCC1 [Example 60, N-4-[6-acetyl-4-amino-7-(morpholin-4-ylmethyl)pyrrolo[2,1-f][1,2,4]triazin-5-yl]-2-fluorophenyl-N′-[4-(trifluoromethyl)pyridin-2-yl]urea] | –
< 10 | – | – | Cc1cc(-c2c(C)c(CN3CCCOCC3)n3ncnc(N)c23)ccc1NC(=O)Nc1cc(C(F)(F)F)ccn1 [Example 124, N-{4-[4-amino-6-methyl-7-(1,4-oxazepan-4-ylmethyl)pyrrolo[2,1-f][1,2,4]triazin-5-yl]-2-methylphenyl}-N′-[4-(trifluoromethyl)pyridin-2-yl]urea] | –
< 10 | < 5 | > 0.5 | N#CCc1c(-c2ccc(NC(=O)Nc3cc(C(F)(F)F)ccc3F)c(F)c2)c2c(N)ncnn2c1CN1CCOCC1 [Example 69, N-{4-[4-amino-6-(cyanomethyl)-7-(morpholin-4-ylmethyl)-pyrrolo[2,1-f][1,2,4]triazin-5-yl]-2-fluorophenyl}-N′-[2-fluoro-5-(trifluoromethyl)phenyl]urea] | –
< 10 | – | – | Nc1ncnn2c(CN3CCOCC3)c(-c3cnco3)c(-c3ccc(NC(=O)Nc4cc(C(F)(F)F)ccn4)cc3)c12 [Example 27, N-4-[4-amino-7-(morpholin-4-ylmethyl)-6-(1,3-oxazol-5-yl)pyrrolo[2,1-f][1,2,4]triazin-5-yl]phenyl-N′-[4-(trifluoromethyl)pyridin-2-yl]urea] | –
< 10 | < 5 | > 0.5 | CN1CCN(Cc2c(C(=O)NCC(F)(F)F)c(-c3ccc(NC(=O)Nc4cc(C(F)(F)F)ccc4F)cc3)c3c(N)ncnn23)CC1 [Example 10, 4-amino-5-{4-[({[2-fluoro-5-(trifluoromethyl)-phenyl]amino}carbonyl)amino]phenyl}-7-[(4-methylpiperazin-1-yl)methyl]-N-(2,2,2-trifluoroethyl)pyrrolo[2,1-f][1,2,4]triazine-6-carboxamide] | –
